# Measurements published in patent US8633237B2, “Indane derivatives” (Merck Sharp & Dohme B.V., priority 2009, dated 2014).
# Target: T1, AMPA (GluR1) receptor (Homo sapiens, UniProt P42261)
# T1 construct: expressed in transfected cells; host or cells: HEK cells (HEK.GluR1(i)), kept under hygromycin selection
# Assay: Ca2+ influx fluorescence assay (FLEXstation, Fluo-3) in HEK.GluR1(i) cells
# Assay type: cell-based
# Details: glutamate +/- test compound, read-out: EC50, positive modulation of the AMPA receptor
# Description: The compounds in this invention may be tested using a biological assay which measures Ca^2+ influx mediated through positive modulation of the AMPA (GluR1) receptor using standard techniques in the art such as, but not limited to, a FLEXstation (manufactured by Molecular Devices, Sunnyvale, Calif.). An optical readout using fluorescent probes is employed to measure ion channel dependent changes in intracellular ion concentration or membrane potential. The assay utilises the Ca^2+ conductance of functional homomeric GluR1(i) AMPA receptors to generate glutamate-dependent Ca^2+ responses. Influx of Ca^2+ through the ion channel is measured indirectly through an increase in intracellular Ca^2+ levels using the calcium sensitive dye such as, but not limited to, Fluo-3 (Molecular Devices, Sunnyvale, Calif.) in FLEXstation. A positive AMPA receptor modulator, in the presence of glutamate, will result in an influx of Ca^2+ through the ion channel which can be measured indirectly through an increase in intracellular Ca2+ levels using the calcium sensitive dye Fluo-3 in FLEXstation.
# HEK.GluR1(i) cells were maintained in DMEM supplemented with 10% fetaclone II, 1% non-essential amino acids and 150 μg/mL hygromycin, at 37° C./5% CO2. […]
# T1 sequence (P42261 19-906 isoform P42261-2 limits assumed, species assumed): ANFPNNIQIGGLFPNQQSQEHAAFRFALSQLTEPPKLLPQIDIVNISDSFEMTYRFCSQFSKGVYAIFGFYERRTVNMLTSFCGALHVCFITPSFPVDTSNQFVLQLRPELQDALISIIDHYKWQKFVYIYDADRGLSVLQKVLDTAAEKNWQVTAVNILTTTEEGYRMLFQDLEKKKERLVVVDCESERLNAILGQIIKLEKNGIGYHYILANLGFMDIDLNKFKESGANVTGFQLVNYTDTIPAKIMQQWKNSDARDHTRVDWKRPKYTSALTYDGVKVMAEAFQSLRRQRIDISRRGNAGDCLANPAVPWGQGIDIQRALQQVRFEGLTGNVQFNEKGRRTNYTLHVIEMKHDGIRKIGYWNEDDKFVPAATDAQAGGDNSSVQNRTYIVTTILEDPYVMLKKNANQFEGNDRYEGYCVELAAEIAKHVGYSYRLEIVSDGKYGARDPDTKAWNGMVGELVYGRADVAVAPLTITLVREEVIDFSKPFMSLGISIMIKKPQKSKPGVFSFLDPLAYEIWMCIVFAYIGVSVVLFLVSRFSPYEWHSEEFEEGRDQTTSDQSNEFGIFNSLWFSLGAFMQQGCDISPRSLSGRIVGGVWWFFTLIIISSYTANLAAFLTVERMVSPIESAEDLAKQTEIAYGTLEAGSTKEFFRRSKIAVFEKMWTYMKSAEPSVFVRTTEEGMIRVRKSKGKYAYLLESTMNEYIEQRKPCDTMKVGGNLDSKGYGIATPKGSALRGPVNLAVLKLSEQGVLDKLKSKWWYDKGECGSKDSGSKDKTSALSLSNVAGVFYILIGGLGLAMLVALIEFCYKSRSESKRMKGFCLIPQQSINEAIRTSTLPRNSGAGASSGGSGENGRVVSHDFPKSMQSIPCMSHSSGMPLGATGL
smiles,measurement,value
"CC(C)S(=O)(=O)N[C@H]1Cc2ccc(Oc3cccc(C(F)(F)F)c3)cc2C1 [Example 9, (S)-N-(5-(3-(trifluoromethyl)phenoxy)-2,3-dihydro-1H-inden-2-yl)propane-2-sulfonamide]",EC50,2.3 µM
